Results published in patent publication US20110158919A1, “AROMA COMPOSITION COMPRISING O-COUMARIC ACID TO REDUCE OR SUPPRESS UNDESIRABLE TASTE IMPRESSIONS OF SWEETENERS” (SYMRISE AG, priority 2009, published 2011).
Where a name gives a salt, the structure may show the parent alone.

Legend:
[1] = Stability test for OCA in a carbonated soft drink; assay type: physicochemical; conditions: 5000 Lux at 37° C. for 9 days
Protocol: Test 2: Stability Test for OCA in a Carbonated Soft Drink A carbonated soft drink was prepared consisting of water, 10 ppm trans-o-coumaric acid, 350 ppm Rebaudioside A, 250 ppm sodium benzoate, 150 ppm potassium sorbate, 0.1 wt.-% of lemon/lime extract flavour and 0.15 wt.-% sodium citrate/citric acid. The latter was added to obtain a pH of 3.0±0.2. Said mixture was carbonated with 2.7 volumes of carbon dioxide. This PET-bottled drink was stressed with 5000 Lux at 37° C. for 9 days, thereby simulating a storage time (shelf life) of about 9 months at 20° C. At the end of the test the soft drink still contained 8 ppm of OCA, corresponding to an OCA-stability of 80% after a storage time of about 9 months.

[2] = Solubility of homoeriodictyol salts; assay type: physicochemical; conditions: in words

Row | SMILES | OCA content of the soft drink at the end of the test ([1]; 10 ppm at start, PET-bottled carbonated soft drink, pH 3.0±0.2) [ppm] | OCA-stability ([1]; simulating a storage time of about 9 months at 20° C.) [%] | solubility compared with pure homoeriodictyol sodium salt [2]
1 | O=C(O)/C=C/c1ccccc1O [OCA, (E)-3-(2-hydroxyphenyl)-2-propenoic acid] | 8 | 80 | 
2 | COc1cc([C@@H]2CC(=O)c3c(O)cc(O)cc3O2)ccc1O [homoeriodictyol potassium salt] |  |  | better solubility
